19 molecules from patent publication US5393923A, “3,5-di-t-butyl-4-hydroxyphenylmethylhydroxylamines and their derivatives, pharmaceutical compositions, and methods of use therefor” (Warner-Lambert Company, priority 1993, dated 1995) can be followed below.

One assay has as its target T1, cyclooxygenase (Rattus norvegicus, UniProt Q63921).
T1 construct: host or cells: RBL-1
T1 sequence (Q63921 27-602): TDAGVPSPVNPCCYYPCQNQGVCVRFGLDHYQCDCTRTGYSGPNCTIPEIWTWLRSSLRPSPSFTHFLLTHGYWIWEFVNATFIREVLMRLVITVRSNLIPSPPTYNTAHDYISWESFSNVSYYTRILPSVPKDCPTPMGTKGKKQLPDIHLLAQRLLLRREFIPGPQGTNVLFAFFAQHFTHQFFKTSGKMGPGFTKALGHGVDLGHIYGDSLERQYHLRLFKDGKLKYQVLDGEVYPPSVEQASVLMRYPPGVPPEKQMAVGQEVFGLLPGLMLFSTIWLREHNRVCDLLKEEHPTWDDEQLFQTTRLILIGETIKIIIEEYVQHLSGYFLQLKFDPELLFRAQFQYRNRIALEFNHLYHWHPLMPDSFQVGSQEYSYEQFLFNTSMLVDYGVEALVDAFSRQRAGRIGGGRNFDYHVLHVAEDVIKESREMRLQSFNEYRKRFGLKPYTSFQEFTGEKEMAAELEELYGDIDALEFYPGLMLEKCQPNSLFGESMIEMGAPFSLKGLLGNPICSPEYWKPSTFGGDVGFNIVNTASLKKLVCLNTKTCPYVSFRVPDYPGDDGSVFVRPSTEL
Briefly: ARBC whole cell cyclooxygenase assay (PGF2α formation, RBL-1 cells). The assay is classed as cell-based. How it is done:
(§1) ARBL/ARBC WHOLE CELL 5-LIPOXYGENASE AND CYCLOOXYGENASE ASSAYS The rat basophilic leukemia cell line (RBL-1) was obtained from the American Type Culture Collection (Rockville, Md.). Radioimmunoassay (RIA) kits of LTB4 and PGF2α were obtained from Amersham (Arlington Heights, Ill.) and Seragen (Boston, Mass.), respectively. RBL-1 cells are grown in suspension culture in Eagle's minimum essential medium supplemented with 12% fetal bovine serum at 37° C. in an incubator supplied with air-5% carbon dioxide. Cells are harvested by centrifugation. They are washed with cold phosphate-buffered saline, pH 7.4 (PBS; NaCl, 7.1 g; Na2 HPO4, 1.15 g; KH2 PO4, 0.2 g; and KCl, 0.2 g/L). Cells are finally suspended in PBS containing 1.0 mM calcium at a density of 2×10^6 cells/mL. Cells are incubated […] test agent (in DMSO) (1% DMSO is without effect on arachidonic acid metabolism) for 10 minutes at room temperature. Calcium ionophore A23187 (5 μM) is added and cells are incubated for 7 minutes at 37° C. The reaction is stopped by chilling the tubes on ice for 10 minutes. Cells are separated by centrifugation and the supernatant is stored at -20° C. Aliquots (100 μL) are analyzed for LTB4 and PGF2α using radioimmunoassay kits as provided by the supplier. Table 1 contains biochemical data for compounds of Formula I obtained from this whole cell assay as amount of inhibition at given μM or IC50 s which are calculated as the concentration of a test compound in micromoles (μM) causing 50% inhibition of LTB4 or PGF2αformation.

The next assay deals with T2, 5-lipoxygenase (Rattus norvegicus, UniProt P12527).
T2 construct: host or cells: RBL-1
T2 sequence (P12527 1-673): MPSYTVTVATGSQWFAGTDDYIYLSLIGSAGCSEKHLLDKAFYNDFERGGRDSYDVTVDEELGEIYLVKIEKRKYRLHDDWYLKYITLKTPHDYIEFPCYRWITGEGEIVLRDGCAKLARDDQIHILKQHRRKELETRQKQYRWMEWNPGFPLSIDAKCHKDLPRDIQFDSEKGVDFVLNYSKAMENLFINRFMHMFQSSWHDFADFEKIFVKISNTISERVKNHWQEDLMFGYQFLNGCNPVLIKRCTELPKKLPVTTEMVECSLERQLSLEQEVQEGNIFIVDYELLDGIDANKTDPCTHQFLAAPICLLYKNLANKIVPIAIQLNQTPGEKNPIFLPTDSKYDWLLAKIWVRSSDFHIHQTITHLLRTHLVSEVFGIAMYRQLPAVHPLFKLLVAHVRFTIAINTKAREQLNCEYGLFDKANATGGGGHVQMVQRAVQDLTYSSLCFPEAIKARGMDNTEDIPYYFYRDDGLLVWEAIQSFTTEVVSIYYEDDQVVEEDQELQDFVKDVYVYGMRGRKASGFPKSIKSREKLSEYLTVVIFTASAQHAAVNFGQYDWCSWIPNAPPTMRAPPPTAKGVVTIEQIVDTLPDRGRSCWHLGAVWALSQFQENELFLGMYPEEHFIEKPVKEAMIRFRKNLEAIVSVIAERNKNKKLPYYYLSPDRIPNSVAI
Briefly: ARBL whole cell 5-lipoxygenase assay (LTB4 formation, RBL-1 cells). In kind it is cell-based. How it is done: as §1

The test system of assay [1] is carrageenan-induced rat foot paw edema. Briefly: Carrageenan-induced rat foot paw edema-2 (CFE-2) assay. In kind it is in vivo. As to conditions: dosed 1 hour before carrageenan, edema measured 5 hours after, read-out: CFE ID40. How it is done:
CARRAGEENAN-INDUCED RAT FOOT PAW EDEMA-2 (CFE-2) ASSAY: PROTOCOL
Carrageenan solution (1% w/v) is prepared by dissolving 100 mg carrageenan (Marine Colloidal Div., Springfield, N.J.) in 10 mL of sterile saline (0.9%) solution (Travenol). The solution is vortexed for 30 to 45 minutes. Animals are dosed with compound 1 hour before carrageenan challenge. Foot paw edema is induced by injecting 0.10 mL of the 1% carrageenan subcutaneously into the plantar portion of the right hind paw of each rat under light anesthesia. Initial foot paw volume is measured immediately following carrageenan challenge using mercury plethysmography (Buxco Electronics). Edema is measured 5 hours after carrageenan. The difference between the 5-hour and the initial paw volume is expressed as delta edema. The delta edema for each test group of animals is used to calculate the percent inhibition of edema achieved by the compound at the test dose compared with the vehicle control group. The ID40 (the dose at which swelling is inhibited by 40%) is calculated by probit analysis for the dose at which 40% inhibition occurs.
A general note: In the carrageenan paw model, swelling and tenderness develop within hours.

Setting [2] is: A23187, class symbol, read-out: ARBC inhibition at given concentration (N).
Setting [3] is: A23187, read-out: ARBL inhibition of LTB4 at given concentration.
The mark [4] stands for this setting: A23187, class symbol, read-out: ARBL inhibition at given concentration (N).

Where a name gives a salt, the structure may show the parent alone. Read-outs that look alike come from different tables or passages of the source.

Take `CC(C)C(=O)N(O)C(C)c1cc(C(C)(C)C)c(O)c(C(C)(C)C)c1` (stereo not shown) [Example 4, N-[1-[3,5-Bis(1,1-dimethylethyl)-4-hydroxyphenyl]-ethyl]-N-hydroxy-2-methylpropanamide]: the inhibition at 16 µM was below 40% at cyclooxygenase (setting [2]) and above 91% on 5-lipoxygenase (setting [3]).
On to `CC(=O)N(O)C(C)c1cc(C(C)(C)C)c(O)c(C(C)(C)C)c1` (stereo not shown) [Example 5, N-[1-[3,5-Bis(1,1-dimethylethyl)-4-hydroxyphenyl]-ethyl]-N-hydroxyacetamide], for which the inhibition at 16 µM at cyclooxygenase (setting [2]) was below 40%; on 5-lipoxygenase (setting [3]) it was above 90%.
As to `CCOC(=O)N(O)C(C)c1cc(C(C)(C)C)c(O)c(C(C)(C)C)c1` (stereo not shown) [Example 6, [1-[3,5-Bis(1,1-dimethylethyl)-4-hydroxyphenyl]-ethyl]hydroxycarbamic acid, ethyl ester], the inhibition at 16 µM at cyclooxygenase (setting [2]) was below 40%; at 5-lipoxygenase (setting [3]) it was above 96%.
On to `CNC(=S)N(O)C(C)c1cc(C(C)(C)C)c(O)c(C(C)(C)C)c1` (stereo not shown) [Example 7, N-[1-[3,5-Bis(1,1-dimethylethyl)-4-hydroxyphenyl]-ethyl]-N-hydroxy-N'-methylthiourea], for which the inhibition at 16 µM on cyclooxygenase (setting [2]) and at 5-lipoxygenase (setting [4]) was below 40% throughout.
Consider `CNC(=O)N(O)C(C)c1cc(C(C)(C)C)c(O)c(C(C)(C)C)c1` (stereo not shown) [Example 8, N-[1-[3,5-Bis(1,1-dimethylethyl)-4-hydroxyphenyl]-ethyl]-N-hydroxy-N'-methylure], for which the inhibition at 16 µM at cyclooxygenase (A23187, read-out: ARBC inhibition of PGF2α at given concentration) is 45%; on 5-lipoxygenase (setting [4]), below 40%.
In the case of `CCNC(=O)N(O)C(C)c1cc(C(C)(C)C)c(O)c(C(C)(C)C)c1` (stereo not shown) [Example 9, N-[1-[3,5-Bis(1,1-dimethylethyl)-4-hydroxyphenyl]-ethyl]-N'-ethyl-N-hydroxyurea], the values for the inhibition at 16 µM on cyclooxygenase (setting [2]) and on 5-lipoxygenase (setting [3]) were below 40% and above 91%, respectively.
In the case of `CC(c1cc(C(C)(C)C)c(O)c(C(C)(C)C)c1)N(O)C(N)=O` (stereo not shown) [Example 10, N-[1-[3,5-Bis(1,1-dimethylethyl)-4-hydroxylphenyl]-ethyl]-N-hydroxyurea], the inhibition at 16 µM is below 40% at cyclooxygenase (setting [2]) and 79% at 5-lipoxygenase (setting [3]).
Taken in the same sequence, the figures for `CCOC(=O)NC(=S)N(O)C(C)c1cc(C(C)(C)C)c(O)c(C(C)(C)C)c1` (stereo not shown) [Example 11, [[[1-[3,5-Bis(1,1-dimethylethyl)-4-hydroxyphenyl]-ethyl]hydroxyamino]-thioxomethyl]carbamic acid, ethyl ester, acetate (10:3)] were below 40% and 91%.
`CC(=O)ON(Cc1cc(C(C)(C)C)c(O)c(C(C)(C)C)c1)C(C)=O` [Example 12, N-(Acetyloxy)-N-[[3,5-bis(1,1-dimethylethyl)-4-hydroxyphenyl]methyl]acetamide, 0.3 hydrate]: the inhibition at 16 µM at cyclooxygenase (setting [2]) was below 40%; at 5-lipoxygenase (setting [3]) it was 95%.
For `CC(C)C(=O)ON(Cc1cc(C(C)(C)C)c(O)c(C(C)(C)C)c1)C(=O)C(C)C` [Example 13, N-[[3,5-Bis(1,1-dimethylethyl)-4-hydroxyphenyl]-methyl]-2-methyl-N-[2-methyl-1-oxopropoxy]propanamide], in that order: below 40% and 49%.
Taken in the same sequence, the figures for `CC(C)C(=O)N(O)Cc1cc(C(C)(C)C)c(O)c(C(C)(C)C)c1` [Example 14, N-[[3,5-Bis(1,1-dimethylethyl)-4-hydroxyphenyl]-methyl]-N-hydroxy-2-methylpropanamide] were below 40% and 95%.
`CC(=O)N(O)Cc1cc(C(C)(C)C)c(O)c(C(C)(C)C)c1` [Example 15]: the inhibition at 16 µM on cyclooxygenase (setting [2]) was below 40%; on 5-lipoxygenase (setting [3]) it was 90%.
Consider `CONC(c1ccccc1)c1cc(C(C)(C)C)c(O)c(C(C)(C)C)c1` (stereo not shown) [Example 18, 2,6-Bis(1,1-dimethylethyl)-4-[(methoxyamino)phenylmethyl]phenol, monohydrochloride], for which the inhibition at 10 µM on cyclooxygenase (setting [2]) was below 40%; on 5-lipoxygenase (setting [3]), 93%.
On to `CC(C)C(=O)N(O)C(c1ccccc1)c1cc(C(C)(C)C)c(O)c(C(C)(C)C)c1` (stereo not shown) [Example 21, N-[[3,5-Bis(1,1-dimethylethyl)-4-hydroxyphenyl]-phenylmethyl]-N-hydroxy-2-methylpropanamide], for which, in assay [1], the ED40 was 5.3 mg/kg.
`CCOC(=O)N(O)C(c1ccccc1)c1cc(C(C)(C)C)c(O)c(C(C)(C)C)c1` (stereo not shown) [Example 23, N-[[3,5-Bis(1,1-dimethylethyl)-4-hydroxyphenyl]-phenylmethyl]hydroxycarbamic acid, ethyl ester]: the inhibition at 16 µM on cyclooxygenase (setting [2]) is below 40%; on 5-lipoxygenase (setting [3]), 97%.
Taken in the same sequence, the figures for `CCNC(=O)N(O)C(c1ccccc1)c1cc(C(C)(C)C)c(O)c(C(C)(C)C)c1` (stereo not shown) [Example 24, N-[[3,5-Bis(1,1-dimethylethyl)-4-hydroxyphenyl]-phenylmethyl]-N'-ethyl-N-hydroxyurea] were below 40% and 99%.
Taken in the same sequence, the figures for `CNC(=O)N(O)C(c1ccccc1)c1cc(C(C)(C)C)c(O)c(C(C)(C)C)c1` (stereo not shown) [Example 25, N-[[3,5-Bis(1,1-dimethylethyl)-4-hydroxyphenyl]-phenylmethyl]-N-hydroxy-N'-methylurea] were below 40% and 93%.
Take `CNC(=S)N(O)C(c1ccccc1)c1cc(C(C)(C)C)c(O)c(C(C)(C)C)c1` (stereo not shown) [Example 26, N-[[3,5-Bis(1,1-dimethylethyl)-4-hydroxyphenyl]-phenylmethyl]-N-hydroxy-N'-methylthiourea]: the inhibition at 16 µM at cyclooxygenase (setting [2]) was below 40%; on 5-lipoxygenase (setting [3]), 98%.
`CC(C)(C)c1cc(C(c2ccccc2)N(O)C(N)=O)cc(C(C)(C)C)c1O` (stereo not shown) [Example 27, N-[[3,5-Bis(1,1-dimethylethyl)-4-hydroxyphenyl]-phenylmethyl]-N-hydroxyurea]: the inhibition at 10 µM is below 40% at cyclooxygenase (setting [2]) and 97% at 5-lipoxygenase (setting [3]).
